Experimental data from paper PMC6479714, “Multiplex Analysis Platform for Endocrine Disruption Prediction Using Zebrafish” (International Journal of Molecular Sciences, 2019).
Several values for one entry are separate records, joined by “and”; a condition that tells them apart may be missing. Equal entries are not always repeated. Where two headings read alike, the source gives them in different places.

Columns and labels:
[1] = test system: brain aromatase (cyp19a1b); test: cyp19a1b gene expression (qPCR) in exposed zebrafish embryos; assay type: in vivo, zebrafish (Danio rerio); settings: for EC50: zebrafish embryos exposed 48–120 hpf, mRNA by qPCR; for LogEC50 (cyp19a1b mRNA): log of EC50 in μM, 48-120 h, our study
zebrafish embryos = test: acute toxicity test from 48–120 hpf based on the OECD FET test; assay type: in vivo, zebrafish (Danio rerio); settings: zebrafish embryos exposed 48–120 hpf; for LC50, class symbol: highest concentration set by water solubility
Source text: (§1) Twenty embryos per treatment were exposed to 5 concentrations of compound of interest in a 10× dilution factor from 48–120 hpf, which is the experimental time in which EDCs will be screened posteriorly. Embryos were exposed from 48–120 hpf rather than 0–96 hpf or 0–120 hpf to avoid unspecific toxicity outside of the EDC testing period, which have been chosen on the basis that endocrine pathways, e.g., thyroid metabolism, are not fully functional until 40–55 hpf in zebrafish embryos. Stock solutions of chemicals to be tested were freshly prepared in exposure medium. The highest concentration for each compound was selected according to its water solubility (Table S1). Exposures were performed in glass vessels to assure maximum bioavailability for hydrophobic compounds, and medium was not exchanged during the experiment.

cyp19a1b - mRNA [2] = settings: cited from earlier work; for LogEC50 (cyp19a1b - mRNA): log of EC50 in μM
cyp19a1b - fluorescence = settings: 0-96 h, cited from earlier work; for LogEC50 (cyp19a1b - fluorescence): log of EC50 in μM
vitellogenin 1 (vtg1) = test: vtg1 gene expression (qPCR) in exposed zebrafish embryos; settings: for EC50: read-out: EC50 vtg1
[3] = listed physicochemical property, source not given; cited from earlier work
[4] = test system: cytochrome P450 2k22 (cyp2k22); test: cyp2k22 gene expression (qPCR) in exposed zebrafish embryos; settings: for EC50: read-out: EC50 cyp2k22
[5] = target: iodothyronine deiodinase 2 (dio2); test: dio2 gene expression (qPCR) in exposed zebrafish embryos; assay type: in vivo, zebrafish (Danio rerio); settings: for EC50: read-out: EC50 dio2
vtg - blood [6] = settings: cited from earlier work
[7] = test system: cytosolic sulfotransferase 2 family 2 (sult2st3); test: sult2st3 gene expression (qPCR) in exposed zebrafish embryos; assay type: in vivo, zebrafish (Danio rerio); settings: for maximum FI / maximum average overexpression level above controls, sult2st3: exposed 48–120 hpf, times above controls; for EC50: read-out: EC50 sult2st3
cyp19a1b - vtg1 mRNA = test: estrogenic markers considered together (cyp19a1b - vtg1 mRNA), zebrafish embryos
ERE-GFP - fluorescence = settings: 0-120 h, cited from earlier work
vtg - blood [8] = settings: cited from earlier work; for LogEC50 (vtg - blood): log of EC50 in μM
cyp19a1b - mRNA [9] = settings: 14 days (adults), cited from earlier work
vtg1 - mRNA = settings: 0-168 h; ref [10] (supplement list: Chen 2018); cited from earlier work
[10] = acute toxicity test from 48–120 hpf based on the OECD FET test; assay type: in vivo, zebrafish (Danio rerio); settings: in vivo; zebrafish embryos exposed 48–120 hpf
Source text: as §1

vtg - mRNA = settings: 14 days (juveniles), cited from earlier work
thyroid receptor α (trα) = test: trα gene expression (qPCR) in exposed zebrafish embryos; assay type: in vivo, zebrafish (Danio rerio); settings: exposed 48–120 hpf
tpo - mRNA = settings: 48-120 h, ref [32] (supplement list), cited from earlier work
transthyretin (ttr) = test: ttr gene expression (qPCR) in exposed zebrafish embryos; assay type: in vivo, zebrafish (Danio rerio); settings: exposed 48–120 hpf
thyroid peroxidase (tpo) = test: tpo gene expression (qPCR) in exposed zebrafish embryos; assay type: in vivo, zebrafish (Danio rerio); settings: for EC50: Danio rerio, read-out: EC50 tpo
sult2st3 - cyp2k22 mRNA [11] = settings: 96-120 h, ref [31] (supplement list), cited from earlier work
sult2st3 - cyp2k22 mRNA [12] = test: androgenic markers considered together (sult2st3 - cyp2k22 mRNA), zebrafish embryos
[13] = ref [3] (supplement list: Brion 2012)
[14] = log of EC50 in μM, 48-120 h, our study
[15] = zebrafish embryos exposed 48–120 hpf, mRNA by qPCR
[16] = FUL 1 µM co-exposed with E2 1 µM
[17] = * mean of an approximate range, ref [21] (supplement list: Molina 2018)
[18] = log of EC50 in μM, ref [21] (supplement list)
[19] = NIL 1 µM co-exposed with TES 1 µM, reaching control levels

CC/C(=C(/CC)c1ccc(O)cc1)c1ccc(O)cc1 [DES, diethylstilbestrol]
EC50 ([1]; Danio rerio): 10 nM
LogEC50 (cyp19a1b mRNA) [1]: -2
LC50, class symbol (zebrafish embryos): -
EC50 (cyp19a1b - mRNA [2]; 2-48 h, * mean of an approximate range, ref [6] (supplement list: Kishida 2001)): ~5.5 nM
LogEC50 (cyp19a1b - mRNA) (cyp19a1b - mRNA [2]; 2-48 h, ref [6] (supplement list)): -2.26
EC50 (cyp19a1b - fluorescence; [13]): 0.01 nM
LogEC50 (cyp19a1b - fluorescence) (cyp19a1b - fluorescence; ref [3] (supplement list)): -5

C[C@]12CCC(=O)C=C1CC[C@@H]1[C@@H]2CC[C@@]2(C)[C@H]1CC[C@]2(C)O [17α-MT, 17α-methyltestosterone]
LogEC50 (vtg1 mRNA) (vitellogenin 1 (vtg1); [14]): 0.301
EC50 (vitellogenin 1 (vtg1); zebrafish embryos exposed 48–120 hpf, mRNA by qPCR (END: downregulation)): 2000 nM
LogEC50 (cyp19a1b mRNA) [1]: -0.2076
EC50 [1]: 620 nM
Water solubility [3]: 33.90 µg/mL
EC50 [4, 15]: 50 nM
EC50 [5, 15]: 90 nM
LC50 (zebrafish embryos): 90200 nM
EC50 (cyp19a1b - mRNA [2]; 0-144h, * mean of an approximate range, ref [28] (supplement list: Trant 2001)): ~170 nM
LogEC50 (cyp19a1b - mRNA) (cyp19a1b - mRNA [2]; 0-144h, ref [28] (supplement list)): -0.7696
EC50 (vtg - blood [6]; 12 days (adults), ref [30] (supplement list: Ankley 2001), read-out: EC50 (vtg - blood)): 660 nM
EC50 (vtg - blood [6]; 21 days (adults), * mean of an approximate range, ref [29] (supplement list: Pawlowski 2004), read-out: EC50 (vtg1 - blood)): ~2 nM
LogEC50 (vtg - blood) (vtg - blood [6]; log of EC50 in μM, 12 days (adults), ref [30] (supplement list)): -0.1805
LogEC50 (vtg1 - blood) (vtg - blood [6]; log of EC50 in μM, 21 days (adults), ref [29] (supplement list)): -2.699
maximum FI / maximum average overexpression level above controls, sult2st3 [7]: 4.64–8.97
EC50 [7, 15]: 100 nM
EC50 (cyp19a1b - fluorescence; [13]): 40 nM
LogEC50 (cyp19a1b - fluorescence) (cyp19a1b - fluorescence; ref [3] (supplement list)): -1.398

C[C@]12CC[C@@H]3c4ccc(O)cc4C[C@@H](CCCCCCCCC[S+]([O-])CCCC(F)(F)C(F)(F)F)[C@H]3[C@@H]1CC[C@@H]2O (stereo partly shown) [FUL, fulvestrant]
FI vtg1 after co-exposure with antagonist (vitellogenin 1 (vtg1); [16]): 205.50
rescue effect: decrease of vtg1 compared to single exposure of E2 (vitellogenin 1 (vtg1); [16]): 47.89%
rescue effects at 10 µM antagonist (cyp19a1b - vtg1 mRNA; FUL 10 µM co-exposed with E2): no more rescue effects than those observed at 1 µM
FI cyp19a1b after co-exposure with antagonist [1, 16]: 57.17
LC50, class symbol (zebrafish embryos): -

C=CC1(C)OC(=O)N(c2cc(Cl)cc(Cl)c2)C1=O (stereo not shown) [VIN, vinclozolin]
LC50, class symbol (zebrafish embryos): -

CC(C)(c1ccc(O)cc1)c1ccc(O)cc1 [BPA, bisphenol A]
EC50 (vtg1 - mRNA), class symbol (vitellogenin 1 (vtg1); 48-120 h, our study): n.e.
effect on expression of vtg1 (vitellogenin 1 (vtg1); exposed 48–120 hpf): did not affect
EC50 ([1]; Danio rerio): 4990 nM
LogEC50 (cyp19a1b mRNA) [1]: 0.6981
EC50 (ERE-GFP - fluorescence; ref [19] (supplement list: Green 2016)): 1230 nM
LogEC50 (ERE-GFP - fluorescence) (ERE-GFP - fluorescence; log of EC50 in μM, ref [19] (supplement list)): 0.08991
EC50 (vtg - blood [8]; 14 days (adults), ref [14] (supplement list: Brian 2005)): 650 nM
EC50 (vtg - blood [8]; 28 days (juveniles), * mean of an approximate range, ref [13] (supplement list: Van den Belt 2004)): ~2630 nM
LogEC50 (vtg - blood) (vtg - blood [8]; 14 days (adults), ref [14] (supplement list)): -0.1871
LogEC50 (vtg - blood) (vtg - blood [8]; ref [13] (supplement list)): 0.42
EC50 (cyp19a1b - mRNA [9]; [17]): ~24 nM
LogEC50 (cyp19a1b - mRNA) (cyp19a1b - mRNA [9]; [18]): -1.62
EC50 (vtg1 - mRNA), class symbol (vtg1 - mRNA): n.e.
LC50 [10]: 41600 nM
EC50 (vtg - mRNA; [17]): ~240 nM
LogEC50 (vtg - mRNA) (vtg - mRNA; [18]): -0.6198
EC50 (cyp19a1b - mRNA [2]; 0-72 h, ref [20] (supplement list: Saeed 2016)): 220 nM
EC50 (cyp19a1b - mRNA [2]; 72-96 h, * mean of an approximate range, ref [5] (supplement list: Chung 2011)): ~3000 nM
LogEC50 (cyp19a1b - mRNA) (cyp19a1b - mRNA [2]; 0-72 h, ref [20] (supplement list)): -0.6576
LogEC50 (cyp19a1b - mRNA) (cyp19a1b - mRNA [2]; 72-96 h, ref [5] (supplement list)): 0.4771
EC50 (vtg - blood [6]; 43 days (adults), * mean of an approximate range, ref [22] (supplement list: Sohoni 2001), read-out: EC50 (vtg - blood)): ~1750 nM
LogEC50 (vtg - blood) (vtg - blood [6]; log of EC50 in μM, 43 days (adults), ref [22] (supplement list)): 0.243
EC50 (cyp19a1b - fluorescence; * mean of an approximate range, ref [18] (supplement list: Le Fol 2017)): ~6250 nM
EC50 (cyp19a1b - fluorescence; ref [2] (supplement list: Petersen 2013)): 7400 nM
EC50 (cyp19a1b - fluorescence; [13]): 3300 nM
LogEC50 (cyp19a1b - fluorescence) (cyp19a1b - fluorescence; ref [2] (supplement list)): 0.8692
LogEC50 (cyp19a1b - fluorescence) (cyp19a1b - fluorescence; ref [3] (supplement list)): 0.5185
LogEC50 (cyp19a1b - fluorescence) (cyp19a1b - fluorescence; ref [18] (supplement list)): 0.7959

Cn1cc[nH]c1=S [MMI, methimazole]
Water solubility [3]: 277500.00 µg/mL
effect on trα expression (thyroid receptor α (trα)): None of the other three remaining thyroid markers analyzed were affected
EC50 (tpo - mRNA; main text refs 25, 29): 487000 nM
LogEC50 (tpo - mRNA) (tpo - mRNA; log of EC50 in μM): 2.688
effect on ttr expression (transthyretin (ttr)): None of the other three remaining thyroid markers analyzed were affected
effect on dio2 expression ([5]; exposed 48–120 hpf): None of the other three remaining thyroid markers analyzed were affected
EC50 (thyroid peroxidase (tpo); [15]): 397000 nM
LogEC50 (tpo - mRNA) (thyroid peroxidase (tpo); [14]): 2.599

C[C@]12CC[C@H]3[C@@H](CCC4=CC(=O)CC[C@@]43C)[C@@H]1CC[C@@H]2O [TES, testosterone]
LogEC50 (sult2st3 - cyp2k22 mRNA) (sult2st3 - cyp2k22 mRNA [11]; log of EC50 in μM): -1.222
EC50 (sult2st3 - cyp2k22 mRNA [11]; read-out: EC50 (sult2st3 - cyp2k22 mRNA)): 60 nM
EC50 (vitellogenin 1 (vtg1); Danio rerio): 1460 nM
EC50 (cyp19a1b - vtg1 mRNA; Danio rerio, read-out: EC50 (cyp19a1b - vtg1 mRNA)): 1110 nM
LogEC50 (cyp19a1b - vtg1 mRNA) (cyp19a1b - vtg1 mRNA; [14]): 0.04532
EC50 (sult2st3 - cyp2k22 mRNA [12]; Danio rerio, read-out: EC50 (sult2st3 - cyp2k22 mRNA)): 440 nM
LogEC50 (sult2st3 - cyp2k22 mRNA) (sult2st3 - cyp2k22 mRNA [12]; [14]): -0.3565
EC50 ([4]; Danio rerio): 740 nM
maximum average overexpression level above controls, cyp2k22 ([4]; exposed 48–120 hpf, times above controls): 4.01
EC50 (thyroid peroxidase (tpo)): 20 nM
EC50 (cyp19a1b - mRNA [2]; 0-72 h, * mean of an approximate range, ref [27] (supplement list: Mouriec 2009)): ~1000 nM
LogEC50 (cyp19a1b - mRNA) (cyp19a1b - mRNA [2]; 0-72 h, ref [27] (supplement list)): 0
EC50 ([7]; Danio rerio): 140 nM
maximum FI / maximum average overexpression level above controls, sult2st3 [7]: 7.33 and 4.64–8.97
EC50 (cyp19a1b - fluorescence; [13]): 1030 nM
LogEC50 (cyp19a1b - fluorescence) (cyp19a1b - fluorescence; ref [3] (supplement list)): 0.01284

CC1(C)NC(=O)N(c2ccc([N+](=O)[O-])c(C(F)(F)F)c2)C1=O [NIL, nilutamide]
Water solubility [3]: 4.19 µg/mL
rescue of TES-induced cyp2k22 overexpression [4, 19]: totally rescued
LC50 [10]: 32800 nM
rescue of TES-induced sult2st3 overexpression [7, 19]: totally rescued

C[C@]12CC[C@H]3[C@@H](CCC4=CC(=O)CC[C@@H]43)[C@@H]1CC[C@@H]2O [NAN, nandrolone]
EC50 (vitellogenin 1 (vtg1); Danio rerio): 1720 nM
EC50 ([1]; Danio rerio): 200 nM
EC50 ([4]; Danio rerio): 110 nM
EC50 ([5]; Danio rerio): 80 nM
LC50 [10]: 497000 nM
EC50 ([7]; Danio rerio): 130 nM
maximum FI / maximum average overexpression level above controls, sult2st3 [7]: 4.64–8.97
